The values below come from US20200399238A1, “THERAPEUTIC AURONES” (MIDDLE TENNESSEE STATE UNIVERSITY, priority 2016, published 2020).

One data set has as its system T. rubrum. Nature of the data set: Antifungal microdilution broth assay, T. rubrum. The class given is cell-based. The note with it: Trichophyton rubrum; Table 5. The source says: (§1) A microdilution broth method (CLSI, Reference Method for Broth Dilution Antifungal Susceptibility Testing of Yeasts, Approved Standard-Third Edition, Clinical Laboratory Standards Institute, Wayne, Pa., 2008) was followed with some modifications for the testing of potential antifungal compounds Corning CellGro RPMI 1640 with glutamine, without bicarbonate buffer, with phenol red (RPMI; Sigma-Aldrich) was used as the base medium for testing. A 1 M solution of morpholinepropanesulfonic acid (MOPS; Sigma-Aldrich) was added to the RPMI to a final concentration of 0.165 M for buffering (RPMI-MOPS). This medium was adjusted to a pH of 7.0 with 10 M NaOH and filter sterilized.
(§2) PrestoBlue® (Life Technologies, Invitrogen, Carlsbad, Calif.), a resazurin-based cell viability reagent that, in metabolically active cells, is reduced from blue, non-fluorescent resazurin, to red, fluorescent resorufin, was used to assess inhibition of yeast growth by the aurones. Reduction of the compound from resazurin to resorufin is proportional to the number of metabolically active cells and can be quantified by measuring relative fluorescence units (RFUs). […]
(§3) IC50 determination was calculated using GraphPad Prism version 7.01 for Windows (GraphPad Software, Inc., La Jolla, Calif.) from the RFUs at dilution points. […]
(Dilution methods test growth across graded concentrations, often in twofold steps.)

A further data set deals with S. cerevisiae. Briefly: Antifungal microdilution broth assay, S. cerevisiae. The class given is cell-based. The note with it: Saccharomyces cerevisiae; Table 5.
Excerpt: as §1, §2, §3

The subject of another data set is ERK, JNK, p38. Nature of the data set: Western blot, MAPK phosphorylation, THP-1. Conditions: LPS 15 min. For orientation: Immunoblotting shows a protein as a band on a membrane.
Data set [1] has as its system p65-EGFP / TNFα promoter mCherry reporter. Nature of the data set: Live cell imaging of RAW 264.7 dual reporter cells (p65-EGFP, TNFα promoter mCherry). The class given is cell-based, murine. The note with it: 50 μM pre-treatment. The protocol: Cells were maintained at 37° C. with 5% CO2 in a humidified atmosphere during imaging. EGFP and mCherry fluorescence were imaged using FITC and Cy3 filters, respectively. Nikon Elements Software (Nikon. USA) was used for microscope control and image capture. Post-acquisition, images were analyzed using Fiji (Schindelin, Arganda-Carreras et al. 2012). Images were background subtracted and cytoplasmic:nuclear p65-EGFP and whole cell mCherry fluorescence were quantified for individual cells at each time point.

The subject of another data set is p65 (NF-κB). Briefly: Indirect immunofluorescence for NF-κB nuclear translocation, THP-1. Conditions: pre-treatment with 50 aurone 1; THP-1, LPS 30 min. Format: cell-based, human. The source says:
Bay 11-7082 is a compound that inhibits LPS-induced activation of IKKα/β, thereby suppressing downstream IκBα phosphorylation/degradation and p65 nuclear translocation and was used as a positive control (Catalan, Fernandez-Castillejo et al. 2012). Treated cells were fixed, permeabilized, blocked, and stained with p65 (NF-κB) primary antibody, Dylight 488 conjugated secondary antibody, and Hoechst 33342 dye, sequentially. The Hoechst and DyLight fluorophores detect changes in nuclear morphology (blue fluorescence) and NF-κB distribution (green fluorescence), respectively. Nuclear Translocation Bioapplication software on the Arrayscan VTI reader was used for image acquisition and data analysis (Thermo Fisher Scientific, Waltham, Mass., USA). For each well, at least 400 cells were automatically acquired and analyzed. The translocation index was calculated by measuring the average intensity difference of NF-κB between the identified cytoplasmic region and nuclear region.

For another data set, the system named is TNFα. Briefly: Cytokine response by ELISA, TNFα. Format: cell-based, human. The protocol:
(§4) Dexamethasone is a synthetic glucocorticoid that suppresses LPS-induced pro-inflammatory cytokine expression and was used as a control (Abraham, Lawrence et al. 2006). Supernatants were collected for human cytokine ELISAs and the manufacturer's protocol was followed to assess the cytokine response. Cells remaining after the supernatant collection were tested for relative viability by Alamar Blue cytotoxicity assay as previously described.

Another data set has as its system IL-8. Nature of the data set: Cytokine response by ELISA, IL-8. The class given is cell-based, human. The note with it: LPS-stimulated THP-1, ELISA. The protocol:
as §4
A general note: ELISA stands for enzyme-linked immunosorbent assay.

The test system of data set [2] is PMA-differentiated THP-1 cells. Nature of the data set: Alamar Blue cell viability assay, THP-1. Format: cell-based, human. The protocol: THP-1 cells were maintained in RPMI 1640 medium supplemented with 10% heat-inactivated FBS and 1% penicillin/streptomycin (complete culture medium) at 37° C. with 5% CO2 supplemented. Cell concentrations were adjusted to desired concentrations for each experiment by centrifugation at 500×g for 5 min and resuspended in complete culture medium with 100 nM of PMA. Cell concentration was adjusted to 5×10^5 cells/ml for all assays with the exception of 2.5×10^5 cells/ml were used for NF-κB nuclear translocation assay. Cells were seeded onto 96-, 24-, or 12-well plates and incubated for 48 to 72 h to allow for differentiation. Cells were washed with serum-free RPMI 1640 medium before each experiment to remove undifferentiated cells. […] Cells were seeded into tissue culture plates at 10% confluence and grown to 80% confluence within 72 h. For live cell microscopy, 1×10^5 cells/ml were seeded into 35 mm glass-bottom (MatTek) dishes 24 h prior to imaging. For luciferase assays, 1.2×10^5 cells/well were seeded into 24-well tissue culture-treated plates.
Following treatment, the relative cell viability was measured by Alamar Blue assay. For Alamar Blue assays, supernatants were replaced with culture medium containing 1× Alamar Blue reagent and incubated overnight. Cell viability was assessed by measuring relative fluorescent units (RFU) on the SpectraMax M2e microplate reader (Molecular Devices Inc., Sunnyvale, Calif., USA) at Ex 560 nm and Em 590 nm. The results were expressed as a percentage relative to LPS alone control cells. The effects of the vehicle control, DMSO, on cell viability were also assessed.
as §4

The structures appear in SMILES notation.

Method for ERK, JNK, p38: U0126 is a compound that inhibits MEK1/2 and was used as positive control for ERK phosphorylation inhibition (Hotokezaka, Sakai et al. 2002). Cells were lysed with radio-immunoprecipitation assay (RIPA) lysis buffer that contained a protease and phosphatase inhibitor cocktail. Cell lysates were then tested for protein concentration using a BCA protein assay and diluted with RIPA lysis buffer to normalize protein concentration in all samples. Lysates were mixed with sample loading buffer containing bromophenol blue, glycerol, SDS, and 2-mercaptoethanol. The separated proteins were then transferred onto a nitrocellulose membrane and blocked with 5% BSA in IX Tris-buffered saline with 0.1% Tween-20 for 1 h. The blots were incubated with primary antibodies at 4° C. overnight followed by incubation with HRP-conjugated secondary antibodies for 2 h at 22° C. The membranes were developed by addition of ECL substrate and images were collected with a ChemiDoc XRS+ system chemiluminescence imager (Bio-Rad, Hercules, Calif., USA). Western blot band intensity was quantified using Image Lab software (Bio-Rad, Hercules, Calif., USA). […]

`COc1ccc(/C=C2\Oc3c(ccc(O)c3O)C2=O)cc1O` [Aurone 1009, (Z)-6,7-dihydroxy-2-(3-hydroxy-4-methoxybenzylidene)benzofuran-3(2H)-one]: the IC50 in the data set on T. rubrum worked out at 49 µM; with S. cerevisiae, 26 µM.

Consider `O=C1/C(=C/c2ccc(CO)o2)Oc2ccccc21` [aurone 1], for which, in the data set on ERK, JNK, p38, the “phosphorylation of ERK, JNK, or p38” value is on record as “no statistically significant effect”. Moreover, in data set [1], the “expression of mCherry (TNFα promoter reporter)” value is listed as “smaller fold-change in the expression of mCherry” and the “nuclear translocation of p65-EGFP post-LPS” value is “diminished”. The “cytoplasmic-to-nuclear translocation of p65” value in the data set on p65 (NF-κB) is on record as “capable of blocking cytoplasmic-to-nuclear translocation of p65”. The inhibition at 20 µM in the data set on TNFα (Homo sapiens, LPS-stimulated THP-1 cells, 20 μM, mean ± SD, read-out: Average % TNF-α Inhibition) was determined as 25.3 ± 6.1%. In addition, the “suppression of TNFα expression” value in the data set with TNFα (LPS-stimulated THP-1, ELISA, FIG. 9A, concentration not printed with the value (20-80 μM tested)) came out at 93.8%. In addition, in the data set with IL-8, the “reduction of IL-8 expression” value was found to be 71%. Moreover, the “THP-1 cell viability (Alamar Blue)” value in data set [2] (100 μM with LPS) is given as “less than 90%”. For the same compound, the “THP-1 cell viability (Alamar Blue)” value in data set [2] (20, 40, 80 μM with LPS for 4 h) is “no effect on cell viability”. The “Average % Viability (4 h with LPS)” value in data set [2] (THP-1 cells, 20 μM, 4 h with LPS, mean ± SD) was determined as 96.0 ± 0.6%.

A word on the IC50: it is the point on the concentration scale where inhibition reaches its midpoint. As usually defined, the inhibition is the change of the read-out against control, counted positive when it falls.
